# Tested on: pre-menopausal women
# Assay: uterine bleeding pattern, clinical trial of compound (VI) 200 mg per day (choline salt) with add-back therapy (1.0 mg E2, 0.5 mg norethindrone acetate)
# Assay type: in vivo, human
# Protocol: The experiments described in this example were conducted as part of a single-center, open-label, randomized, parallel-group clinical trial in 32 pre-menopausal women. Following screening assessments, and during the second half of the menstrual cycle, women received norethindrone (5 mg, three-times daily for 10 days) to synchronize menstrual cycles. After menstrual cycle synchronization, subjects were randomized with a 1:1 ratio to one of two treatment arms: (i) a cohort receiving once-daily administration of compound (VI) (200 mg per day, administered in the form of a choline salt) with concurrent onset of add-back therapy administration for 10 weeks (“Concurrent-ABT”), or (ii) a cohort receiving pre-treatment with compound (VI) (200 mg per day, administered in the form of a choline salt) for 4 weeks followed by combined daily administration of compound (VI) and add-back therapy (“Delayed-ABT”). The add-back therapy used in these experiments contained 1.0 mg of E2 and 0.5 mg of norethindrone acetate, and was administered to subjects once daily.
# The main treatment outcomes and endpoints measured during these experiments included (i) a qualitative assessment of uterine blood loss, which was recorded on a daily basis throughout the study by characterizing each subject's bleeding pattern using one of the following four categories: “no bleeding,” “spotting” (light staining, dark blood, no sanitary protection needed or only panty liner), “bleeding” (1-4 completely soiled maxi sanitary towels or 1-8 soiled tampons or equivalent combination of the two), or “heavy bleeding” (>4 completely soiled maxi sanitary towels or >8 soiled tampons or equivalent combination of the two); (ii) a bi-weekly assessment of each subject's circulating E2 concentration; (iii) a bi-weekly assessment of each subject's circulating progesterone concentration (measured using a validated commercial chemiluminescence immunoassay method (Elecsys Progesterone III, Roche, Burgess Hill, UK)); (iv) the pharmacokinetic profile of compound (VI) and the add-back therapy; and (v) adverse events.
# [1] = Concurrent-ABT group, first half of treatment
# [2] = Concurrent-ABT group, second half of the treatment period
# [3] = Days 1-14, treatment A (Concurrent-ABT), N=16
# [4] = Days 1-14, treatment B (Delayed-ABT), N=16
# [5] = Days 15-28, Overall (A+B), N=32
# [6] = Days 15-28, treatment A (Concurrent-ABT), N=16
# [7] = Days 15-28, treatment B (Delayed-ABT), N=16
# [8] = Days 29-42, Overall (A+B), N=29
# [9] = Days 29-42, treatment A (Concurrent-ABT), N=14
structure (smiles),measurement,setting,value
"COc1cc(F)c(-n2c(=O)[nH]c3csc(C(=O)O)c3c2=O)cc1OCc1c(OC)ccc(F)c1F [Compound (VI), 3-[2-fluoro-5-(2,3-difluoro-6-methoxybenzyloxy)4-methoxyphenyl]-2,4-dioxo-1,2,3,4-tetrahydrothieno [3,4d]pyrimidine-5-carboxylic acid]",women who had reached amenorrhea within 5 days of treatment,Concurrent-ABT group,~40%
same,"bleeding, frequency",[1],≤ 4%
same,"spotting, frequency",[1],≤ 10%
same,women in complete amenorrhea (no bleeding),"Concurrent-ABT group, last 4 weeks of treatment",~80%
same,"amenorrhea, frequency",[2],up to 98%
same,"bleeding, frequency",[2],less than 3%
same,"spotting, frequency",[2],1-5%
same,Uterine Bleeding Pattern,"Concurrent-ABT, Weeks 2-4",Spotting and bleeding generally decreased over time
same,Uterine Bleeding Pattern: Bleeding,"Concurrent-ABT, Weeks 2-4",Bleeding: ≤4%
same,Uterine Bleeding Pattern: Spotting,"Concurrent-ABT, Weeks 2-4",Spotting: ≤8%
same,Uterine Bleeding Pattern: Bleeding,"Concurrent-ABT, Weeks 7-10",Bleeding: ≤2%
same,Uterine Bleeding Pattern: Spotting,"Concurrent-ABT, Weeks 7-10",Spotting: 1-5%
same,Uterine Bleeding Pattern: amenorrhea,"Concurrent-ABT, Weeks 7-10",Amenorrhea: Up to 98%
same,"No Bleeding or Spotting, subjects (%), Plasma Estradiol Level 20-50 pg/mL","Days 1-14, Overall (A+B), N=32",(9.4%)
same,"No Bleeding or Spotting, subjects (%), Plasma Estradiol Level <20 pg/mL","Days 1-14, Overall (A+B), N=32",(15.6%)
same,"No Bleeding or Spotting, subjects (%), Plasma Estradiol Level >50 pg/mL","Days 1-14, Overall (A+B), N=32",(3.1%)
same,"No Bleeding or Spotting, subjects (n), Plasma Estradiol Level 20-50 pg/mL","Days 1-14, Overall (A+B), N=32",3
same,"No Bleeding or Spotting, subjects (n), Plasma Estradiol Level <20 pg/mL","Days 1-14, Overall (A+B), N=32",5
same,"No Bleeding or Spotting, subjects (n), Plasma Estradiol Level >50 pg/mL","Days 1-14, Overall (A+B), N=32",1
same,"No Bleeding, subjects (%), Plasma Estradiol Level 20-50 pg/mL","Days 1-14, Overall (A+B), N=32",(0.0%)
same,"No Bleeding, subjects (%), Plasma Estradiol Level <20 pg/mL","Days 1-14, Overall (A+B), N=32",(3.1%)
same,"No Bleeding, subjects (%), Plasma Estradiol Level >50 pg/mL","Days 1-14, Overall (A+B), N=32",(3.1%)
same,"No Bleeding, subjects (n), Plasma Estradiol Level 20-50 pg/mL","Days 1-14, Overall (A+B), N=32",0
same,"No Bleeding, subjects (n), Plasma Estradiol Level <20 pg/mL","Days 1-14, Overall (A+B), N=32",1
same,"No Bleeding, subjects (n), Plasma Estradiol Level >50 pg/mL","Days 1-14, Overall (A+B), N=32",1
same,"No Bleeding or Spotting, subjects (%), Plasma Estradiol Level 20-50 pg/mL",[3],(18.8%)
same,"No Bleeding or Spotting, subjects (%), Plasma Estradiol Level <20 pg/mL",[3],(0.0%)
same,"No Bleeding or Spotting, subjects (%), Plasma Estradiol Level >50 pg/mL",[3],(6.3%)
same,"No Bleeding or Spotting, subjects (n), Plasma Estradiol Level 20-50 pg/mL",[3],3
same,"No Bleeding or Spotting, subjects (n), Plasma Estradiol Level <20 pg/mL",[3],0
same,"No Bleeding or Spotting, subjects (n), Plasma Estradiol Level >50 pg/mL",[3],1
same,"No Bleeding, subjects (%), Plasma Estradiol Level 20-50 pg/mL",[3],(0.0%)
same,"No Bleeding, subjects (%), Plasma Estradiol Level <20 pg/mL",[3],(0.0%)
same,"No Bleeding, subjects (%), Plasma Estradiol Level >50 pg/mL",[3],(6.3%)
same,"No Bleeding, subjects (n), Plasma Estradiol Level 20-50 pg/mL",[3],0
same,"No Bleeding, subjects (n), Plasma Estradiol Level <20 pg/mL",[3],0
same,"No Bleeding, subjects (n), Plasma Estradiol Level >50 pg/mL",[3],1
same,"No Bleeding or Spotting, subjects (%), Plasma Estradiol Level 20-50 pg/mL",[4],(0.0%)
same,"No Bleeding or Spotting, subjects (%), Plasma Estradiol Level <20 pg/mL",[4],(31.3%)
same,"No Bleeding or Spotting, subjects (%), Plasma Estradiol Level >50 pg/mL",[4],(0.0%)
same,"No Bleeding or Spotting, subjects (n), Plasma Estradiol Level 20-50 pg/mL",[4],0
same,"No Bleeding or Spotting, subjects (n), Plasma Estradiol Level <20 pg/mL",[4],5
same,"No Bleeding or Spotting, subjects (n), Plasma Estradiol Level >50 pg/mL",[4],0
same,"No Bleeding, subjects (%), Plasma Estradiol Level 20-50 pg/mL",[4],(0.0%)
same,"No Bleeding, subjects (%), Plasma Estradiol Level <20 pg/mL",[4],(6.3%)
same,"No Bleeding, subjects (%), Plasma Estradiol Level >50 pg/mL",[4],(0.0%)
same,"No Bleeding, subjects (n), Plasma Estradiol Level 20-50 pg/mL",[4],0
same,"No Bleeding, subjects (n), Plasma Estradiol Level <20 pg/mL",[4],1
same,"No Bleeding, subjects (n), Plasma Estradiol Level >50 pg/mL",[4],0
same,"No Bleeding or Spotting, subjects (%), Plasma Estradiol Level 20-50 pg/mL",[5],(34.4%)
same,"No Bleeding or Spotting, subjects (%), Plasma Estradiol Level <20 pg/mL",[5],(53.1%)
same,"No Bleeding or Spotting, subjects (%), Plasma Estradiol Level >50 pg/mL",[5],(3.1%)
same,"No Bleeding or Spotting, subjects (n), Plasma Estradiol Level 20-50 pg/mL",[5],11
same,"No Bleeding or Spotting, subjects (n), Plasma Estradiol Level <20 pg/mL",[5],17
same,"No Bleeding or Spotting, subjects (n), Plasma Estradiol Level >50 pg/mL",[5],1
same,"No Bleeding, subjects (%), Plasma Estradiol Level 20-50 pg/mL",[5],(21.9%)
same,"No Bleeding, subjects (%), Plasma Estradiol Level <20 pg/mL",[5],(50.0%)
same,"No Bleeding, subjects (%), Plasma Estradiol Level >50 pg/mL",[5],(3.1%)
same,"No Bleeding, subjects (n), Plasma Estradiol Level 20-50 pg/mL",[5],7
same,"No Bleeding, subjects (n), Plasma Estradiol Level <20 pg/mL",[5],16
same,"No Bleeding, subjects (n), Plasma Estradiol Level >50 pg/mL",[5],1
same,"No Bleeding or Spotting, subjects (%), Plasma Estradiol Level 20-50 pg/mL",[6],(62.5%)
same,"No Bleeding or Spotting, subjects (%), Plasma Estradiol Level <20 pg/mL",[6],(12.5%)
same,"No Bleeding or Spotting, subjects (%), Plasma Estradiol Level >50 pg/mL",[6],(6.3%)
same,"No Bleeding or Spotting, subjects (n), Plasma Estradiol Level 20-50 pg/mL",[6],10
same,"No Bleeding or Spotting, subjects (n), Plasma Estradiol Level <20 pg/mL",[6],2
same,"No Bleeding or Spotting, subjects (n), Plasma Estradiol Level >50 pg/mL",[6],1
same,"No Bleeding, subjects (%), Plasma Estradiol Level 20-50 pg/mL",[6],(37.5%)
same,"No Bleeding, subjects (%), Plasma Estradiol Level <20 pg/mL",[6],(12.5%)
same,"No Bleeding, subjects (%), Plasma Estradiol Level >50 pg/mL",[6],(6.3%)
same,"No Bleeding, subjects (n), Plasma Estradiol Level 20-50 pg/mL",[6],6
same,"No Bleeding, subjects (n), Plasma Estradiol Level <20 pg/mL",[6],2
same,"No Bleeding, subjects (n), Plasma Estradiol Level >50 pg/mL",[6],1
same,"No Bleeding or Spotting, subjects (%), Plasma Estradiol Level 20-50 pg/mL",[7],(6.3%)
same,"No Bleeding or Spotting, subjects (%), Plasma Estradiol Level <20 pg/mL",[7],(93.8%)
same,"No Bleeding or Spotting, subjects (%), Plasma Estradiol Level >50 pg/mL",[7],(0.0%)
same,"No Bleeding or Spotting, subjects (n), Plasma Estradiol Level 20-50 pg/mL",[7],1
same,"No Bleeding or Spotting, subjects (n), Plasma Estradiol Level <20 pg/mL",[7],15
same,"No Bleeding or Spotting, subjects (n), Plasma Estradiol Level >50 pg/mL",[7],0
same,"No Bleeding, subjects (%), Plasma Estradiol Level 20-50 pg/mL",[7],(6.3%)
same,"No Bleeding, subjects (%), Plasma Estradiol Level <20 pg/mL",[7],(87.5%)
same,"No Bleeding, subjects (%), Plasma Estradiol Level >50 pg/mL",[7],(0.0%)
same,"No Bleeding, subjects (n), Plasma Estradiol Level 20-50 pg/mL",[7],1
same,"No Bleeding, subjects (n), Plasma Estradiol Level <20 pg/mL",[7],14
same,"No Bleeding, subjects (n), Plasma Estradiol Level >50 pg/mL",[7],0
same,"No Bleeding or Spotting, subjects (%), Plasma Estradiol Level 20-50 pg/mL",[8],(55.2%)
same,"No Bleeding or Spotting, subjects (%), Plasma Estradiol Level <20 pg/mL",[8],(13.8%)
same,"No Bleeding or Spotting, subjects (%), Plasma Estradiol Level >50 pg/mL",[8],(20.7%)
same,"No Bleeding or Spotting, subjects (n), Plasma Estradiol Level 20-50 pg/mL",[8],16
same,"No Bleeding or Spotting, subjects (n), Plasma Estradiol Level <20 pg/mL",[8],4
same,"No Bleeding or Spotting, subjects (n), Plasma Estradiol Level >50 pg/mL",[8],6
same,"No Bleeding, subjects (%), Plasma Estradiol Level 20-50 pg/mL",[8],(41.4%)
same,"No Bleeding, subjects (%), Plasma Estradiol Level <20 pg/mL",[8],(13.8%)
same,"No Bleeding, subjects (%), Plasma Estradiol Level >50 pg/mL",[8],(17.2%)
same,"No Bleeding, subjects (n), Plasma Estradiol Level 20-50 pg/mL",[8],12
same,"No Bleeding, subjects (n), Plasma Estradiol Level <20 pg/mL",[8],4
same,"No Bleeding, subjects (n), Plasma Estradiol Level >50 pg/mL",[8],5
same,"No Bleeding or Spotting, subjects (%), Plasma Estradiol Level 20-50 pg/mL",[9],(64.3%)
same,"No Bleeding or Spotting, subjects (%), Plasma Estradiol Level <20 pg/mL",[9],(7.1%)
same,"No Bleeding or Spotting, subjects (%), Plasma Estradiol Level >50 pg/mL",[9],(21.4%)

# — patent US20230067378A1, “COMPOSITIONS AND METHODS FOR THE TREATMENT OF ESTROGEN-DEPENDENT DISORDERS” (ObsEva S.A., priority 2018, published 2023)
